In brackets after ≈: the same amount, converted by molar mass. Read-outs that look alike come from different tables or passages of the source.
Assays:
M. tuberculosis H37Rv = experiment: Microplate Alamar Blue Assay (MABA), MIC determination; type: cell-based, Mycobacterium tuberculosis; settings: two-fold dilution from 100.00 to 0.19 μg/mL
[1] = Cytotoxicity in VERO cells (MTT); settings: African green monkey
in vitro = settings: African green monkey
[2] = tested on: Mycobacterium tuberculosis H37Rv strain (ATCC 27294); experiment: Antimycobacterial pre-screening at 6.25 μg/mL (BACTEC 460 radiometric system); type: cell-based; settings: M. tuberculosis H37Rv; for inhibition at 6.25 µg/mL: 6.25 μg/mL; for MIC90: pre-screening, read-out: Estimation of MIC90
male mice = experiment: Acute toxicity in vivo, median lethal dose; settings: intraperitoneal, approximate LD50 (Litchfield and Wilcoxon)
Description: The synthesized compounds were evaluated for their approximate LD50 in male mice. The mice were kept under a constant temperature and humidity in sterile cages with water and food. The stock solutions of the compounds used in this study were prepared immediately before usage and injected intraperitoneally (ip). The LD50 values (Tab. 3) were calculated using the method described by Litchfield and Wilcoxon.
The median lethal dose (LD50), the dose of the selected compounds that causes 50% mortality in mice, was determined from dose–response curves with at least four doses by the method of Litchfield and Wilcoxon.

[3] = Mycobacterium tuberculosis, H37RV, read-out: MIC90

Compound | MIC90 (M. tuberculosis H37Rv; [3]) | IC50 at 72 h [1] | IC50 at 72 h (in vitro) | inhibition at 6.25 µg/mL [2] | MIC90 [2] | MIC90 (M. tuberculosis H37Rv) | LD50ip (male mice)
NNC(=O)c1ccncc1 [Isoniazid, isoniazid, reference compound] | 0.044 µg/mL (≈ 0.321 µM) | > 6 µg/mL | – | – | – | – | –
O=C1C2=C(C(=O)c3ccccc31)C(c1ccccc1O)c1sc(=O)[nH]c1S2 (stereo not drawn) [Compound 4a, 11-(2-Hydroxyphenyl)-3, 11-dihydro-2H-benzo[6,7]thiochromeno[2,3-d][1,3]thiazole-2,5,10-trione] | 0.6 to 2.7 µg/mL (≈ 1.52 to 6.86 µM) | – | 0.44 µg/mL (≈ 1.12 µM) | ≥ 90% | < 6.25 µg/mL | 0.68 µg/mL (≈ 1.73 µM) | 800 mg/kg
COC(=O)c1ccc(C2C3=C(Sc4[nH]c(=O)sc42)C(=O)c2ccccc2C3=O)cc1 (stereo not drawn) [Compound 4c, Methyl 4-(2,5,10-trioxo-3,5,10,11-tetrahydro-2H-benzo[6,7]thiochromeno[2,3-d][1,3]thiazol-11-yl)benzoate] | – | – | – | ≥ 90% | < 6.25 µg/mL | – | 180 mg/kg
COc1cc(C2C3=C(Sc4[nH]c(=O)sc42)C(=O)c2ccccc2C3=O)ccc1OC(F)F (stereo not drawn) [Compound 4d, 11-[4-(Difluoromethoxy)-3-methoxyphenyl]-3,11-dihydro-2H-benzo[6,7]thio-chromeno[2,3-d][1,3]thiazole-2,5,10-trione] | – | – | – | 65% | > 6.25 µg/mL | – | 710 mg/kg
O=C1C2=C(C(=O)c3ccccc31)C(c1ccc(Cl)cc1)c1sc(=O)[nH]c1S2 (stereo not drawn) [Compound 4g, 11-(4-Chlorophenyl)-3,11-dihydro-2H-benzo[6,7]thiochromeno[2,3-d][1,3]thiazole-2,5,10-trione] | – | – | 1.58 µg/mL (≈ 3.84 µM) | ≥ 90% | < 6.25 µg/mL | – | >1000 mg/kg
CO[C@H]1/C=C/O[C@@]2(C)Oc3c(C)c(O)c4c(O)c(c(/C=N/N5CCN(C)CC5)c(O)c4c3C2=O)NC(=O)/C(C)=C\C=C\[C@H](C)[C@H](O)[C@@H](C)[C@@H](O)[C@@H](C)[C@H](OC(C)=O)[C@@H]1C [Rifampin, reference compound] | 0.075 µg/mL (≈ 0.0911 µM) | > 6 µg/mL | – | – | – | – | –
CC(C)(C)c1ccc(C2C3=C(Sc4[nH]c(=O)sc42)C(=O)c2ccccc2C3=O)cc1 (stereo not drawn) [Compound 4b, 11-(4-tert-Butylphenyl)-3,11-dihydro-2H-benzo[6,7]thiochromeno[2,3-d][1,3]thiazole-2,5,10-trione] | – | – | – | 61% | > 6.25 µg/mL | – | 650 mg/kg
O=C1C2=C(C(=O)c3ccccc31)C(c1ccc(F)cc1)c1sc(=O)[nH]c1S2 (stereo not drawn) [Compound 4h, 11-(4-Fluorophenyl)-3,11-dihydro-2H-benzo[6,7]thiochromeno[2,3-d][1,3]thiazole-2,5,10-trione] | – | – | 1.47 µg/mL (≈ 3.72 µM) | ≥ 90% | < 6.25 µg/mL | – | 750 mg/kg
